Experimental data from patent publication US20030125285A1, “Method of examining efficacy of therapy with nucleic acid” (priority 2001, published 2003).

Experiments:
[1] = target: T1, protein of SEQ ID NO: 1 (AK002169) (Homo sapiens, UniProt Q96SI9); experiment: Detection of binding of radio-labeled poly(I)•poly(C) to phage cDNA library proteins on nitrocellulose membrane; conditions: [32P]-poly(I)•poly(C) 1 ng/ml-1 μg/ml, chain length 100-500 bp, 42° C., 5-6 hours
T1 construct: made in house
Procedure: (§1) Detection of Binding Ability to Proteins of SEQ ID NO: 1-3
(§2) (1) Each protein was synthesized by plating phages containing cDNA on a petri dish using human HeLa 5′-STRETCH PLUS cDNA library.
(§3) (2) The synthesized protein was transferred to nitrocellulose membrane.
(§4) (3) To the nitrocellulose membrane was added the following test solution containing poly(I)•poly(C) (chain length 100-500 bp) radio-labeled with [γ-^32P]ATP, and subjected to hybridization at 42° C., for 5-6 hours.
(§5) 1 ng/ml-1 μg/ml [^32P]-poly(I)•poly(C)
(§6) The nucleotide sequence of cDNA corresponding to the screened protein was determined with a sequencer to identify the screened protein.

[2] = target: T2, protein of SEQ ID NO: 2 (human TAR RNA binding protein 2, TRBP2) (Homo sapiens, UniProt Q15633); experiment: as above; conditions: [32P]-poly(I)•poly(C) 1 ng/ml-1 μg/ml, chain length 100-500 bp, 42° C., 5-6 hours
T2 construct: made in house
T2 sequence (Q15633 1-366): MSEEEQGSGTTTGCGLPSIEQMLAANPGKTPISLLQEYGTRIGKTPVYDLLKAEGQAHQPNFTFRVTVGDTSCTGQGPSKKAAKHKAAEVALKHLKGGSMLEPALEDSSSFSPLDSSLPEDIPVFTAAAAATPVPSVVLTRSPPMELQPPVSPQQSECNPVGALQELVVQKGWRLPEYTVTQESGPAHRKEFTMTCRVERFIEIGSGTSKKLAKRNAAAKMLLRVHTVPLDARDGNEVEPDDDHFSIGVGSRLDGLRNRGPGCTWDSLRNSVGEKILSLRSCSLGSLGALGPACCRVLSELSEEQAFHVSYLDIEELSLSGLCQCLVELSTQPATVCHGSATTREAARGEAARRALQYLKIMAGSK
Procedure: as §1, §2, §3, §4, §5, §6

[3] = target: T3, protein of SEQ ID NO: 3 (human TRAL) (Homo sapiens, UniProt P14625); experiment: as above; conditions: [32P]-poly(I)•poly(C) 1 ng/ml-1 μg/ml, chain length 100-500 bp, 42° C., 5-6 hours
T3 construct: made in house
T3 sequence (P14625 22-803): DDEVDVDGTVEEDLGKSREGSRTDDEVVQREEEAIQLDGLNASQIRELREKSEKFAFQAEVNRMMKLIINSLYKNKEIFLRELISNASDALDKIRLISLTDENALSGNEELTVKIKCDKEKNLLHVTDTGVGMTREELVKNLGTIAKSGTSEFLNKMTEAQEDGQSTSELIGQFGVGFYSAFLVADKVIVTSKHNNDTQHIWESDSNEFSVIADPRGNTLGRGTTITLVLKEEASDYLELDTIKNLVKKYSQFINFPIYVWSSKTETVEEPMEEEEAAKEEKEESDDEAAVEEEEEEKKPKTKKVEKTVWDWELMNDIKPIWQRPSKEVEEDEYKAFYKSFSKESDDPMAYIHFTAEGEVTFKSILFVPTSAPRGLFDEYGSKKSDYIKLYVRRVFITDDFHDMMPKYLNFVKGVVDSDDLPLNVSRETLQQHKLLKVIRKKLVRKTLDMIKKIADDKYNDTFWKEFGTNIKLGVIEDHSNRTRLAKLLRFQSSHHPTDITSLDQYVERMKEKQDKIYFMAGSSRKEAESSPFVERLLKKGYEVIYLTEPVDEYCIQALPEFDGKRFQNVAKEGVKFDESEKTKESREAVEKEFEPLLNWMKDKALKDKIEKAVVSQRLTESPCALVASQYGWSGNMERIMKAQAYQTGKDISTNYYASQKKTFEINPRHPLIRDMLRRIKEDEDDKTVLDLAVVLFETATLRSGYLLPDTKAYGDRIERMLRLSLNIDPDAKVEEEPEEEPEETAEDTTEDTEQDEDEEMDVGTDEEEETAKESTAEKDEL
Procedure: as §1, §2, §3, §4, §5, §6

[4] = system: HeLaS3 cancer cells; conditions: Cancer Research, 59, pp. 4325-4333 (1999); cited from earlier work
[5] = system: A431 cancer cells; conditions: Cancer Research, 59, pp. 4325-4333 (1999); cited from earlier work
[6] = system: HeLa cancer cells; conditions: Cancer Research, 59, pp. 4325-4333 (1999); cited from earlier work
[7] = system: SW620 cancer cells; conditions: Cancer Research, 59, pp. 4325-4333 (1999); cited from earlier work

T1 sequence (Q96SI9 183-672): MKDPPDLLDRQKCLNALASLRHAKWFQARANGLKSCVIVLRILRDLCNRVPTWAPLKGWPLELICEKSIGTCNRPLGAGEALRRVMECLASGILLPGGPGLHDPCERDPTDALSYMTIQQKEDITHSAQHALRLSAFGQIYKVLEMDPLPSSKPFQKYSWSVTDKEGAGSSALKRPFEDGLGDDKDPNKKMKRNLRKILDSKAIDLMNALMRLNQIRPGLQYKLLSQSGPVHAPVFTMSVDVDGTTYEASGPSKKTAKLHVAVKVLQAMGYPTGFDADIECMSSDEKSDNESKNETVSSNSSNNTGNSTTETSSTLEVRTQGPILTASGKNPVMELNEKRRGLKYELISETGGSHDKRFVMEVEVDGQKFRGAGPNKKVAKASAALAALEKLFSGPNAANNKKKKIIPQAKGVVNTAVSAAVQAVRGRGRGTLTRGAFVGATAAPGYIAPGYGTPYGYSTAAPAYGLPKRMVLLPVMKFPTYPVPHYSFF

binding to protein of SEQ ID NO: 1 [1]: bound
binding to protein of SEQ ID NO: 2 [2]: bound
binding to protein of SEQ ID NO: 3 [3]: bound
Substance: polyinosinic acid-polycytidylic acid [poly(I)•poly(C)]
efficacy against cancer cells [4]: efficacious
efficacy against cancer cells [5]: efficacious
efficacy against cancer cells [6]: inefficacious
efficacy against cancer cells [7]: inefficacious
